ChEMBL document CHEMBL1201862, “PubChem BioAssay data set” (2004)
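Test compounds were applied to cells in 96-well plates for 48 hours at 5 doses. Abbreviation: GI50, concentration required for 50% inhibition of growth.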 Calls of active or inactive are those of the source. Rule as the data show it: active = GI50 up to about 1.1 µM and inactive = higher.

What was measured:
Test in all cases: DTP human tumour cell line panel, 48 h
ACHN = test system: ACHN
CAKI-1 = test system: CAKI-1
CCRF-CEM = test system: CCRF-CEM
DU-145 = test system: DU-145
HCC 2998 = test system: HCC 2998
HCT-116 = test system: HCT-116
MCF7 = test system: MCF7
MDA-MB-435 = test system: MDA-MB-435
NCI-H460 = test system: NCI-H460
NCI-H522 = test system: NCI-H522
OVCAR-4 = test system: OVCAR-4
SF-268 = test system: SF-268
SF-295 = test system: SF-295
SK-MEL-28 = test system: SK-MEL-28
SK-OV-3 = test system: SK-OV-3
SW-620 = test system: SW-620
T47D = test system: T47D
U-251 = test system: U-251
HL-60 = test system: HL-60
HOP-92 = test system: HOP-92

## Cc1ccc(/N=N/C(=N/NC(=O)c2cc(Cl)ccc2C(=O)c2ccccc2)c2ccc(N(CCC#N)CCC#N)cc2C)cc1
ACHN
  GI50: 22 µM (inactive)
CAKI-1
  GI50: 20.4 µM (inactive)
CCRF-CEM
  GI50: 3.17 µM (inactive)
DU-145
  GI50: 11.5 µM (inactive)
HCC 2998
  GI50: 13.8 µM (inactive)
HCT-116
  GI50: 9.64 µM (inactive)
MCF7
  GI50: 3.52 µM (inactive)
MDA-MB-435
  GI50: 18.7 µM (inactive)
NCI-H460
  GI50: 2.41 µM (inactive)
NCI-H522
  GI50: 4.81 µM (inactive)
OVCAR-4
  GI50: 10.4 µM (inactive)
SF-268
  GI50: 10.8 µM (inactive)
SF-295
  GI50: 14.9 µM (inactive)
SK-MEL-28
  GI50: 14.1 µM (inactive)
SK-OV-3
  GI50: 8.09 µM (inactive)
SW-620
  GI50: 21.2 µM (inactive)
T47D
  GI50: 3.81 µM (inactive)
U-251
  GI50: 8.02 µM (inactive)

## CCc1c2c(nc3ccc(O)cc13)-c1cc3c(c(=O)n1C2)COC(=O)[C@]3(O)CC [7-ETHYL-10-HYDROXYCAMPTOTHECIN]
ACHN
  GI50: < 0.001 µM (active)
CAKI-1
  GI50: < 0.001 µM (active)
CCRF-CEM
  GI50: < 0.001 µM (active)
DU-145
  GI50: < 0.001 µM (active)
HCT-116
  GI50: 0.402 µM (active)
HL-60
  GI50: < 0.001 µM (active)
MCF7
  GI50: 0.01 µM (active)
NCI-H460
  GI50: < 0.001 µM (active)
OVCAR-4
  GI50: 0.00227 µM (active)
SF-268
  GI50: < 0.001 µM (active)
SF-295
  GI50: < 0.001 µM (active)
SK-MEL-28
  GI50: 0.0194 µM (active)
T47D
  GI50: < 0.001 µM (active)
U-251
  GI50: < 0.001 µM (active)

## COc1ccc(NC2Oc3cc4c(cc3C(c3cc(OC)c(OC)c(OC)c3)C2C)OCO4)cc1 (stereo unspecified)
ACHN
  GI50: 0.897 µM (active)
CAKI-1
  GI50: 0.51 µM (active)
CCRF-CEM
  GI50: 0.944 µM (active)
DU-145
  GI50: 0.574 µM (active)
HCC 2998
  GI50: 0.738 µM (active)
HCT-116
  GI50: 0.364 µM (active)
HL-60
  GI50: 0.248 µM (active)
HOP-92
  GI50: 0.92 µM (active)
MCF7
  GI50: 0.394 µM (active)
MDA-MB-435
  GI50: 0.0991 µM (active)
NCI-H460
  GI50: 0.429 µM (active)
NCI-H522
  GI50: 0.311 µM (active)
OVCAR-4
  GI50: 0.566 µM (active)
SF-268
  GI50: 0.959 µM (active)
SF-295
  GI50: 0.268 µM (active)
SK-MEL-28
  GI50: 1.32 µM (inactive)
SK-OV-3
  GI50: 0.948 µM (active)
SW-620
  GI50: 0.428 µM (active)
U-251
  GI50: 0.379 µM (active)

## COC(=O)c1nc(-c2nc(CCNC(=O)OC(C)(C)C)sc2Cl)sc1Cl
ACHN
  GI50: 83.2 µM (inactive)
CCRF-CEM
  GI50: 32.2 µM (inactive)
DU-145
  GI50: > 100 µM (inactive)
HCC 2998
  GI50: > 100 µM (inactive)
HCT-116
  GI50: 60.7 µM (inactive)
HL-60
  GI50: 71.9 µM (inactive)
HOP-92
  GI50: 6.62 µM (inactive)
MCF7
  GI50: 52 µM (inactive)
MDA-MB-435
  GI50: 92 µM (inactive)
NCI-H460
  GI50: > 100 µM (inactive)
SF-268
  GI50: 74.6 µM (inactive)
SF-295
  GI50: > 100 µM (inactive)
SK-MEL-28
  GI50: 70.1 µM (inactive)
SK-OV-3
  GI50: > 100 µM (inactive)
SW-620
  GI50: > 100 µM (inactive)
U-251
  GI50: > 100 µM (inactive)

## O=C1CC(O)c2c1csc2Br (stereo unspecified)
ACHN
  GI50: 21.9 µM (inactive)
CAKI-1
  GI50: 37.8 µM (inactive)
CCRF-CEM
  GI50: 25.2 µM (inactive)
DU-145
  GI50: 25.9 µM (inactive)
HCC 2998
  GI50: 19.2 µM (inactive)
HCT-116
  GI50: 18.5 µM (inactive)
MCF7
  GI50: 19.8 µM (inactive)
MDA-MB-435
  GI50: 18.8 µM (inactive)
NCI-H460
  GI50: 25.7 µM (inactive)
NCI-H522
  GI50: 15.5 µM (inactive)
OVCAR-4
  GI50: 31.6 µM (inactive)
SF-268
  GI50: 27.4 µM (inactive)
SF-295
  GI50: 60.7 µM (inactive)
SK-MEL-28
  GI50: 17.8 µM (inactive)
SK-OV-3
  GI50: 53.8 µM (inactive)
SW-620
  GI50: 15.3 µM (inactive)
T47D
  GI50: 23.7 µM (inactive)
U-251
  GI50: 19.8 µM (inactive)

## COc1ccc(C2OC(N)=C(C#N)C3=C2CCCC3C)cc1OC (stereo unspecified)
ACHN
  GI50: > 100 µM (inactive)
CAKI-1
  GI50: > 100 µM (inactive)
CCRF-CEM
  GI50: > 100 µM (inactive)
DU-145
  GI50: > 100 µM (inactive)
HCT-116
  GI50: > 100 µM (inactive)
HL-60
  GI50: > 100 µM (inactive)
MCF7
  GI50: > 100 µM (inactive)
MDA-MB-435
  GI50: > 100 µM (inactive)
NCI-H460
  GI50: > 100 µM (inactive)
SF-268
  GI50: > 100 µM (inactive)
SF-295
  GI50: > 100 µM (inactive)
SK-MEL-28
  GI50: > 100 µM (inactive)
SK-OV-3
  GI50: > 100 µM (inactive)
SW-620
  GI50: > 100 µM (inactive)
T47D
  GI50: > 100 µM (inactive)
U-251
  GI50: > 100 µM (inactive)

## C[C@@H]1CC[C@@H]2[C@@H](C1)O[C@@H]([C@@H](C)OCc1ccccc1)SC2(C)C
ACHN
  GI50: 17.3 µM (inactive)
CAKI-1
  GI50: 14.9 µM (inactive)
CCRF-CEM
  GI50: 16.6 µM (inactive)
DU-145
  GI50: 30.8 µM (inactive)
HCC 2998
  GI50: 17.9 µM (inactive)
HCT-116
  GI50: 18.3 µM (inactive)
MCF7
  GI50: 18.7 µM (inactive)
MDA-MB-435
  GI50: 16.9 µM (inactive)
NCI-H460
  GI50: 20.9 µM (inactive)
NCI-H522
  GI50: 14.8 µM (inactive)
OVCAR-4
  GI50: 20.1 µM (inactive)
SF-268
  GI50: 23 µM (inactive)
SF-295
  GI50: 16.6 µM (inactive)
SK-MEL-28
  GI50: 24.7 µM (inactive)
SK-OV-3
  GI50: 24.9 µM (inactive)
SW-620
  GI50: 18.4 µM (inactive)
T47D
  GI50: 14.7 µM (inactive)
U-251
  GI50: 17.5 µM (inactive)

## CCN(CC)CCNC(=O)c1cc2cc(NC(=O)c3cc4cc(NC(=O)c5cc6cc([N+](=O)[O-])ccc6[nH]5)ccc4[nH]3)ccc2[nH]1
ACHN
  GI50: > 100 µM (inactive)
CAKI-1
  GI50: > 100 µM (inactive)
CCRF-CEM
  GI50: 10.6 µM (inactive)
DU-145
  GI50: > 100 µM (inactive)
HCC 2998
  GI50: > 100 µM (inactive)
HOP-92
  GI50: > 100 µM (inactive)
MDA-MB-435
  GI50: > 100 µM (inactive)
NCI-H460
  GI50: > 100 µM (inactive)
NCI-H522
  GI50: > 100 µM (inactive)
OVCAR-4
  GI50: > 100 µM (inactive)
SF-268
  GI50: > 100 µM (inactive)
SF-295
  GI50: > 100 µM (inactive)
SK-MEL-28
  GI50: > 100 µM (inactive)
SK-OV-3
  GI50: > 100 µM (inactive)
SW-620
  GI50: > 100 µM (inactive)
T47D
  GI50: > 100 µM (inactive)
U-251
  GI50: > 100 µM (inactive)
